Patent US20120004235A1, “METHODS TO TREAT CANCER” (Rutgers, The State University of New Jersey, priority 2009, published 2012)

Tests used:
[1] = tested on: NCI-H460 human non-small cell lung carcinoma xenograft; test: Comparison dose schedule study in the NCI-H460 xenograft model; assay type: in vivo, nude (nu/nu) mice; details: 60 mg/kg/day IP
Excerpt: Irinotecan served as the positive control.

[2] = tested on: Human DLD-1 Colon Tumor Xenograft Model; test: Test D xenograft, Compound 2 free base; assay type: in vivo, nu/nu mice; details: 60 mg/kg/day IV
[3] = tested on: Human HCT-15 Colon Tumor Xenograft Model; test: Test D xenograft, Compound 2 free base; assay type: in vivo, nu/nu mice; details: 60 mg/kg/day IV, q4d×3
[4] = tested on: Human 786-0 Renal Cell Tumor Xenograft Model; test: Test D xenograft, Compound 2 free base; assay type: in vivo, nu/nu mice; details: 60 mg/kg/day IV, q4d×3
[5] = tested on: MDA-MB-231 human breast tumor xenograft; details: 60 mg/kg/day IP, qod×3 weekly for 2 cycles
[6] = tested on: HT-29 human colon tumor xenograft; test: Compound 2 citrate salt vs. HT-29 human colon tumor model; details: 60 mg/kg/day IV, q4d×3
[7] = tested on: HCT-116 human colon tumor xenograft; test: Compound 2 after oral administration vs. the HCT-116 xenograft model; details: 60 mg/kg/day IP, q4d×3
[8] = tested on: HCT-116 human colon tumor xenograft; test: Compound 2 citrate salt vs. HCT-116 human colon tumor xenograft model (IV); details: 60 mg/kg/day IV, q4d×3
[9] = tested on: human HCT-116 colon ca, HT-29 colon ca and NCI-H460 NSCLC cells; test: 72 hour exposure concentration response in tumor cells (Example 22); assay type: cell-based; details: range over HCT-116, HT-29 and NCI-H460 cells and the three compounds
Experimental: The in vitro and in vivo activity of compound 2 and two of its metabolites (compound 5 and compound 6) were explored and compared with the activity of camptothecin Top1 inhibitors. […] In human HCT-116 colon ca, HT-29 colon ca and NCI-H460 NSCLC cells the concentration response for compound 2, compound 5 and compound 6 were the same. […] Compound 2 was administered intravenously on a QODx3 schedule for 2 cycles.

[10] = tested on: Human HCT-116 Colon Tumor Xenograft Model; test: Test D xenograft, Compound 2 and metabolites; details: qod × 3 for 2 cycles

Structure (SMILES): CCc1c2c(nc3ccc(OC(=O)N4CCC(N5CCCCC5)CC4)cc13)-c1cc3c(c(=O)n1C2)COC(=O)[C@]3(O)CC [Irinotecan, reference compound]
- ILS ([1]; q4d×3): 1.7 fold
- TGD (T-C) ([1]; q4d×3): 14 days
- ILS ([1]; qod×3 weekly for 2 cycles): 2.5 fold
- TGD (T-C) ([1]; qod×3 weekly for 2 cycles): 29 days
- TGI (T/C) ([1]; qod×3 weekly for 2 cycles): 19.0%
- Tumor Growth Delay T-C ([2]; q4d×3): 5 days
- Increase in Life Span (ILS) ([2]; q4d × 3, listed as CPT-11): 1.1x
- Increase in Life Span (ILS) [3]: 1.7x
- Tumor Growth Delay T-C [3]: 28 days
- Increase in Life Span (ILS) [4]: 1.4x
- Tumor Growth Delay T-C [4]: 17 days
- ILS [5]: > 2.0 fold
- TGD (T-C) [5]: 38 days
- TGI (T/C) [5]: 10%
- body weight loss [5]: 20%
- TGD [6]: no TGD was observed
- TGI (T/C) [6]: 52.7%
- tolerability [6]: well tolerated
- ILS [7]: > 1.5 fold
- TGD (T-C) [7]: > 18 days
- body weight loss [7]: < 10%
- animals remaining at study termination ([7]; Day 53): 8 of 9
- ILS [8]: 1.5 fold
- TGD (T-C) [8]: 14 days
- tolerability [8]: tolerated well

Structure (SMILES): CNCCn1c(=O)c2cc(O)c(OC)cc2c2cnc3cc4c(cc3c21)OCO4 [Compound 5]
- IC50 ([9]; read-out: IC50 concentrations): 0.5 to 0.65 nM
- IC90 ([9]; read-out: IC90 concentrations): 1.8 to 2 nM
- Increase in Life Span (ILS) ([10]; 4 mg/kg/day IV): 1.8x
- Tumor Growth Delay T-C ([10]; 4 mg/kg/day IV): 25 days
- Tumor Growth Inhibition T/C (tumor volume) ([10]; 4 mg/kg/day IV): 27.3%
- Increase in Life Span (ILS) ([10]; 6 mg/kg/day IV): 1.9x
- Tumor Growth Delay T-C ([10]; 6 mg/kg/day IV): 28 days
- Tumor Growth Inhibition T/C (tumor volume) ([10]; 6 mg/kg/day IV): 23.4%
- Increase in Life Span (ILS) ([10]; 8 mg/kg/day IV): 2.0x
- Tumor Growth Delay T-C ([10]; 8 mg/kg/day IV): 32 days
- Tumor Growth Inhibition T/C (tumor volume) ([10]; 8 mg/kg/day IV): 27.2%
